Converted amounts (≈) assume the structure as drawn.

Assay [1] has as its target Msmeg (Mycolicibacterium smegmatis, UniProt A0QNE0). Kind of assay: Msmeg IC50. The assay is classed as biochemical.
Assay [2] has as its system Spn. Nature of the assay: Spn MIC. The assay is classed as cell-based, Streptococcus pneumoniae. Conditions: for MIC: Streptococcus pneumoniae, read-out: Spn_MIC.
Assay [3] deals with M. tuberculosis. Kind of assay: MIC testing: Microplate Alamar Blue Assay. The settings on record: lowest concentration preventing color change from blue to pink; for MIC: Mycobacterium tuberculosis, read-out: Mtu MIC. Type of assay: cell-based, Mycobacterium tuberculosis. For orientation: Resazurin is reduced to fluorescent resorufin, in cell work by metabolically active cells.

The subject of assay [4] is Sau. Nature of the assay: Sau MIC. The settings on record: for MIC: Staphylococcus aureus, read-out: Sau_MIC. Type of assay: cell-based, Staphylococcus aureus.
For assay [5], the system named is Hinf. Nature of the assay: Hinf MIC. Type of assay: cell-based, Haemophilus influenzae. The settings on record: for MIC: Haemophilus influenzae, read-out: Hinf_MIC.

Sequence of Msmeg (A0QNE0 whole entry): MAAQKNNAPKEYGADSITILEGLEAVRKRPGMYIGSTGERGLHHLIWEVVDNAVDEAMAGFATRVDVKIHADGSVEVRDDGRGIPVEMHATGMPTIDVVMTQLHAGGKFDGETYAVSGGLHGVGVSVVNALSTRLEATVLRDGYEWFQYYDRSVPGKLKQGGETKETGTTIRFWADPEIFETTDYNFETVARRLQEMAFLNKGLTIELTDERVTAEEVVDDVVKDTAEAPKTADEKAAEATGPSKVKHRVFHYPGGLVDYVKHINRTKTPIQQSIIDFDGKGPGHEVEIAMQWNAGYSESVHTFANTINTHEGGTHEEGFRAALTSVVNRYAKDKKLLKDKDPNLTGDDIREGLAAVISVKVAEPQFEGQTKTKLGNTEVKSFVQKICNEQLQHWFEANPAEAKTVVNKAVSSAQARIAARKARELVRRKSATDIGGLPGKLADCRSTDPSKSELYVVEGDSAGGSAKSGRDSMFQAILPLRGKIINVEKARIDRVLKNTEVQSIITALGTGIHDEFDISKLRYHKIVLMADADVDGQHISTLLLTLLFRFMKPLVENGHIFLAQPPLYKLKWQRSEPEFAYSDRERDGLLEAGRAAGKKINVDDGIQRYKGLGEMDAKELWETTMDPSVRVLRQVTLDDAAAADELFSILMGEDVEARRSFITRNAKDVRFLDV

In general, IC50 refers to the concentration that inhibits the measured activity by half. Low values mean greater potency, high ones weaker potency. In the case of `CO[C@H]1CN(c2nc(-c3ncnn3C)c(C(=O)O)s2)CC[C@H]1NC(=O)c1[nH]c(C)c(Cl)c1Br` [Example 1, 2-((3S,4R)-4-{[3-Bromo-4-chloro-5-methyl-1H-pyrrole-2-carbonyl]amino}-3-methoxypiperidin-1-yl)-4-(1-methyl-1H-1,2,4-triazol-5-yl)-1,3-thiazole-5-carboxylic acid], the IC50 in assay [1] came to 2.6 nM. The MIC in assay [2] worked out at 0.116 µg/mL (≈ 0.208 µM); in assay [3], 0.008 µg/mL (≈ 0.0143 µM); in assay [4], 0.116 µg/mL (≈ 0.208 µM); in assay [5] it was 8 µg/mL (≈ 14.3 µM).
`COCCn1ncnc1-c1nc(N2CC[C@@H](NC(=O)c3[nH]c(Cl)c(C)c3Cl)[C@@H](OC)C2)sc1C(=O)O` [Example 22, 2-((3S,4R)-4-(3,5-dichloro-4-methyl-1H-pyrrole-2-carboxamido)-3-methoxypiperidin-1-yl)-4-(1-(2-methoxyethyl)-1H-1,2,4-triazol-5-yl) thiazole-5-carboxylic acid] displayed an IC50 in assay [1] of 47 nM. The MIC in assay [2] worked out at 0.5 µg/mL (≈ 0.895 µM); in assay [3] it was 0.5 µg/mL (≈ 0.895 µM); in assay [4], 0.25 µg/mL (≈ 0.448 µM).
With `CO[C@H]1CN(c2nc(-c3ncnn3CC3CC3)c(C(=O)O)s2)CC[C@H]1NC(=O)c1[nH]c(C)c(Br)c1Cl` [Example 18, 2-((3S,4R)-4-(4-bromo-3-chloro-5-methyl-1H-pyrrole-2-carboxamido)-3-methoxypiperidin-1-yl)-4-(1-(cyclopropylmethyl)-1H-1,2,4-triazol-5-yl) thiazole-5-carboxylic acid], in assay [1], the IC50 is 4 nM. The MIC in assay [2] was determined as 0.25 µg/mL (≈ 0.417 µM); in assay [3], 0.06 µg/mL (≈ 0.1 µM); in assay [4], 0.125 µg/mL (≈ 0.209 µM); in assay [5], 0.5 µg/mL (≈ 0.835 µM).
For the compound `Cc1[nH]c(C(=O)N[C@@H]2CCN(c3nc(-c4ncnn4C)c(C(=O)O)s3)C[C@@H]2F)c(Br)c1Cl` [Example 5, 2-((3S,4R)-4-{[(3-Bromo-4-chloro-5-methyl-1H-pyrrol-2-yl)carbonyl]amino}-3-fluoropiperidin-1-yl)-4-(1-methyl-1H-1,2,4-triazol-5-yl)-1,3-thiazole-5-carboxylic acid], the half-maximal inhibitory concentration (IC50) in assay [1] is under 4 nM. Besides, the MIC is 0.106 µg/mL (≈ 0.194 µM) in assay [2], under 0.06 µg/mL in assay [3], 0.106 µg/mL (≈ 0.194 µM) in assay [4] and 27.3 µg/mL (≈ 50 µM) in assay [5].
`CCn1ncnc1-c1nc(N2CC[C@@H](NC(=O)c3[nH]c(C)c(Cl)c3Br)[C@@H](OC)C2)sc1C(=O)O` [Example 13, 2-((3S,4R)-4-(3-bromo-4-chloro-5-methyl-1H-pyrrole-2-carboxamido)-3-methoxypiperidin-1-yl)-4-(1-ethyl-1H-1,2,4-triazol-5-yl) thiazole-5-carboxylic acid] registered an IC50 in assay [1] of under 2.5 nM. Also, the MIC in assay [2] is 0.125 µg/mL (≈ 0.218 µM); in assay [3], 0.015 µg/mL (≈ 0.0262 µM); in assay [4] it was 0.125 µg/mL (≈ 0.218 µM); in assay [5] it was 0.125 µg/mL (≈ 0.218 µM).
Consider `CCn1ncnc1-c1nc(N2CC[C@@H](NC(=O)c3[nH]c(C)c(Br)c3Cl)[C@@H](OC)C2)sc1C(=O)O` [Example 14, 2-((3S,4R)-4-(4-bromo-3-chloro-5-methyl-1H-pyrrole-2-carboxamido)-3-methoxypiperidin-1-yl)-4-(1-ethyl-1H-1,2,4-triazol-5-yl) thiazole-5-carboxylic acid], for which the IC50 in assay [1] is under 2.5 nM. The MIC in assay [2] was found to be 0.125 µg/mL (≈ 0.218 µM); in assay [3], 0.03 µg/mL (≈ 0.0524 µM); in assay [4], 0.125 µg/mL (≈ 0.218 µM); in assay [5], 0.125 µg/mL (≈ 0.218 µM).
Regarding `CO[C@H]1CN(c2nc(-c3ncnn3C)c(C(=O)O)s2)CC[C@H]1NC(=O)c1[nH]c(C)c(C#N)c1Br` [Example 8, 2-{(3S,4R)-4-[(3-Bromo-4-cyano-5-methyl-1H-pyrrole-2-carbonyl)-amino]-3-methoxy-piperidin-1-yl}-4-(2-methyl-2H-[1,2,4]triazol-3-yl)-thiazole-5-carboxylic acid], in assay [1], the IC50 is under 0.25 nM. In addition, the MIC in assay [2] is 0.125 µg/mL (≈ 0.228 µM); in assay [3], under 0.03 µg/mL; in assay [4], 0.5 µg/mL (≈ 0.91 µM); in assay [5] it was 2 µg/mL (≈ 3.64 µM).
In turn, `CO[C@H]1CN(c2nc(-c3ncnn3C)c(C(=O)O)s2)CC[C@H]1NC(=O)c1[nH]c(C)c(Br)c1Cl` [Example 2, 2-((3S,4R)-4-{[4-Bromo-3-chloro-5-methyl-1H-pyrrole-2-carbonyl]amino}-3-methoxypiperidin-1-yl)-4-(1-methyl-1H-1,2,4-triazol-5-yl)-1,3-thiazole-5-carboxylic acid] displayed an IC50 in assay [1] of under 4 nM. The MIC in assay [2] is 0.1 µg/mL (≈ 0.179 µM); in assay [3], under 0.03 µg/mL; in assay [4], 0.1 µg/mL (≈ 0.179 µM); in assay [5], 2.6 µg/mL (≈ 4.65 µM).
The compound “2-((3S,4R)-4-(3-bromo-4-chloro-5-methyl-1H-pyrrole-2- carboxamido)-3-fluoropiperidin-1-yl)-4-(1- (cyclopropylmethyl)-1H-1,2,4-triazol-5-yl) thiazole-5- carboxylic acid [Example 17]” gave an IC50 in assay [1] of 4 nM. The Spn_MIC in assay [2] was determined as 0.125 µg/mL. Moreover, the “Mtu MIC” value in assay [3] is 0.06 µg/mL. This compound returned a Sau_MIC in assay [4] of 0.125 µg/mL. This compound registered a Hinf_MIC in assay [5] of 0.125 µg/mL.
Take `CCO[C@H]1CN(c2nc(-c3ncnn3C)c(C(=O)O)s2)CC[C@H]1NC(=O)c1[nH]c(C)c(Br)c1Cl` [Example 11, 2-((3S,4R)-4-(4-bromo-3-chloro-5-methyl-1H-pyrrole-2-carboxamido)-3-ethoxypiperidin-1-yl)-4-(1-methyl-1H-1,2,4-triazol-5-yl) thiazole-5-carboxylic acid]: in assay [1], the IC50 is under 2.5 nM. Moreover, the MIC came to 0.125 µg/mL (≈ 0.218 µM) in assay [2], 0.06 µg/mL (≈ 0.105 µM) in assay [3] and 0.125 µg/mL (≈ 0.218 µM) in assay [4].
In assay [1], `CO[C@H]1CN(c2nc(-c3ncnn3CC3CC3)c(C(=O)O)s2)CC[C@H]1NC(=O)c1[nH]c(C)c(Cl)c1Br` [Example 16, 2-((3S,4R)-4-(3-bromo-4-chloro-5-methyl-1H-pyrrole-2-carboxamido)-3-methoxypiperidin-1-yl)-4-(1-(cyclopropylmethyl)-1H-1,2,4-triazole-5-yl) thiazole-5-carboxylic acid] registered an IC50 of under 2.5 nM. Also, the MIC came out at 0.25 µg/mL (≈ 0.417 µM) in assay [2], 0.03 µg/mL (≈ 0.0501 µM) in assay [3], 8 µg/mL (≈ 13.4 µM) in assay [4] and 0.25 µg/mL (≈ 0.417 µM) in assay [5].
`COCCn1ncnc1-c1nc(N2CC[C@@H](NC(=O)c3[nH]c(C)c(Br)c3Cl)[C@@H](OC)C2)sc1C(=O)O` [Example 21, 2-((3S,4R)-4-(4-bromo-3-chloro-5-methyl-1H-pyrrole-2-carboxamido)-3-methoxypiperidin-1-yl)-4-(1-(2-methoxyethyl)-1H-1,2,4-triazol-5-yl) thiazole-5-carboxylic acid]: in assay [1], the IC50 is under 2.5 nM. Further, the MIC in assay [2] came out at 0.125 µg/mL (≈ 0.207 µM); in assay [3], 0.06 µg/mL (≈ 0.0995 µM); in assay [4], 0.125 µg/mL (≈ 0.207 µM).
As for `CCO[C@H]1CN(c2nc(-c3ncnn3C)c(C(=O)O)s2)CC[C@H]1NC(=O)c1[nH]c(C)c(Cl)c1Br` [Example 10], the IC50 in assay [1] is under 2.5 nM. Besides, the MIC in assay [2] came to 0.125 µg/mL (≈ 0.218 µM); in assay [3] it was 0.008 µg/mL (≈ 0.014 µM); in assay [4], 0.125 µg/mL (≈ 0.218 µM); in assay [5], 0.125 µg/mL (≈ 0.218 µM).
In assay [1], `COCCn1ncnc1-c1nc(N2CC[C@@H](NC(=O)c3[nH]c(C)c(Cl)c3Br)[C@@H](OC)C2)sc1C(=O)O` [Example 19, 2-((3S,4R)-4-(3-bromo-4-chloro-5-methyl-1H-pyrrole-2-carboxamido)-3-methoxypiperidin-1-yl)-4-(1-(2-methoxyethyl)-1H-1,2,4-triazol-5-yl) thiazole-5-carboxylic acid] came in with an IC50 of under 2.5 nM. In addition, the MIC in assay [2] worked out at 0.125 µg/mL (≈ 0.207 µM); in assay [3], 0.03 µg/mL (≈ 0.0498 µM); in assay [4] it was 0.125 µg/mL (≈ 0.207 µM); in assay [5] it was 0.25 µg/mL (≈ 0.415 µM).
For the compound `CO[C@H]1CN(c2nc(-c3ncnn3C)c(C(=O)O)s2)CC[C@H]1NC(=O)c1[nH]c(Cl)c(C)c1Cl` [Example 4, 2-((3S,4R)-4-{[(3,5-Dichloro-4-methyl-1H-pyrrol-2-yl)carbonyl]amino}-3-methoxypiperidin-1-yl)-4-(1-methyl-1H-1,2,4-triazol-5-yl)-1,3-thiazole-5-carboxylic acid], the IC50 in assay [1] amounted to 30 nM. Also, the MIC in assay [2] is 0.1 µg/mL (≈ 0.194 µM); in assay [3], 0.125 µg/mL (≈ 0.243 µM); in assay [4], 1.26 µg/mL (≈ 2.45 µM); in assay [5] it was 4 µg/mL (≈ 7.78 µM).
As to `CCn1ncnc1-c1nc(N2CC[C@@H](NC(=O)c3[nH]c(Cl)c(C)c3Cl)[C@@H](OC)C2)sc1C(=O)O` [Example 15, 2-{(3S,4R)-4-[(3,5-Dichloro-4-methyl-1H-pyrrole-2-carbonyl)-amino]-3-methoxy-piperidin-1-yl}-4-(2-ethyl-2H-[1,2,4]triazol-3-yl)-thiazole-5-carboxylic acid], in assay [1], 45 nM corresponded to half-maximal inhibition (IC50). The MIC stood at 0.25 µg/mL (≈ 0.473 µM) in assay [2], 0.5 µg/mL (≈ 0.946 µM) in assay [3], 0.25 µg/mL (≈ 0.473 µM) in assay [4] and 1 µg/mL (≈ 1.89 µM) in assay [5].
As to `COCCn1ccnc1-c1nc(N2CC[C@@H](NC(=O)c3[nH]c(C)c(Cl)c3Br)[C@@H](OC)C2)sc1C(=O)O` [Example 7, 2-((3S,4R)-4-{[(3-Bromo-4-chloro-5-methyl-1H-pyrrol-2-yl)carbonyl]amino}-3-methoxypiperidin-1-yl)-4-[1-(2-methoxyethyl)-1H-imidazol-2-yl]-1,3-thiazole-5-carboxylic acid], the IC50 in assay [1] amounted to 4.6 nM. Also, the MIC was 0.125 µg/mL (≈ 0.208 µM) in assay [2], 1 µg/mL (≈ 1.66 µM) in assay [3], 0.125 µg/mL (≈ 0.208 µM) in assay [4] and 0.25 µg/mL (≈ 0.415 µM) in assay [5].
In turn, `CO[C@H]1CN(c2nc(-c3ncnn3C)c(C(=O)O)s2)CC[C@H]1NC(=O)c1[nH]c(C)c(Br)c1C#N` [Example 9, 2-{(3S,4R)-4-[(4-Bromo-3-cyano-5-methyl-1H-pyrrole-2-carbonyl)-amino]-3-methoxy-piperidin-1-yl}-4-(2-methyl-2H-[1,2,4]triazol-3-yl)-thiazole-5-carboxylic acid] returned an IC50 in assay [1] of 10 nM. Besides, the MIC stood at 0.125 µg/mL (≈ 0.228 µM) in assay [2], 0.015 µg/mL (≈ 0.0273 µM) in assay [3], 0.25 µg/mL (≈ 0.455 µM) in assay [4] and 0.25 µg/mL (≈ 0.455 µM) in assay [5].

Values taken from US20120022107A1, “2-(PIPERIDIN-1-YL)-4-AZOLYL-THIAZOLE-5-CARBOXYLIC ACID DERIVATIVES AGAINST BACTERIAL INFECTIONS” (ASTRAZENECA AB, priority 2008, published 2012).
